Measured values: patent US6160008A, “Pharmaceutical compositions comprising S-alkylisothiouronium derivatives” (priority 1996, dated 2000)
Entries after “also recorded” stand apart in the source; their conditions may differ. Where two headings read alike, the source gives them in different places.

Columns and labels:
[1] = in vivo, cited from earlier work
[2] = test system: rats exposed to an oxygen pressure of 3 atm; assay: Survival under oxygen pressure of 3 atm, rats (Table 15); format: in vivo, Wistar rat; conditions: 5 hours
Experimental: (§1) Animals were exposed to oxygen under increased pressure in a hyperbaric chamber <<Mana-2≤≤ for treatment of infants above 1 year, which was adjusted for the experiments on animals. The hyperbaric chamber design permitted to create excessive pressure up to 3 atm and to observe animal behavior from outside.
(§2) The experiments were performed on males of F1 (CBAx57B1) mice line and on males of Wistar rat line. Animals were placed in the hyperbaric chamber in plastic boxes and the atmospheric air was replaced by oxygen. The period of compression-decompression was 10 minutes. The exposure of the animals to an oxygen pressure of 3 atm during a period of 2 hours caused only some increase in their motion activity. Further staying of rats and mice in those conditions led to a decrease in the motion activity, to asphyxia with short periods of excitement and cramps. The death of some animals was registered after 2.5-3 hours, 50% after 4 hours, and 75% of mice and 100% of rats were dead after 5 hours.
(§3) When the influence of Difetur and Etyron was studied, the animals were exposed to an oxygen pressure of 3 atm during 5 hours if not otherwise specified. Preparations were injected 5-10 minutes before the session.

[3] = Lung coefficient under hyperbaric oxygen (3 atm); format: in vivo, mice and rats; conditions: for Lung coefficient (lung mass/body mass X100): hyperbaric oxygen
Experimental: as §1, §2, §3
After the session the dead animals were autopsied, their lungs were removed, and the index <<lung mass in gr./body mass in gr. X100>> (i.e. lung coefficient) was defined.

[4] = test system: cardiovascular system of dogs; assay: Effect on the cardiovascular system of dogs (FIGS. 11-13); format: in vivo; conditions: i.v.
Experimental: In the following tests, the effect of S-ethylisothiouronium diethylphosphate was studied on the cardiovascular system of dogs. AP was measured by two methods: it was registered on the tail artery by means of a piezosensor (Ugo Bazile pressure gauge) and in the thigh artery by a catheter filled with heparin. Electrocardiogram was registered in three standard branches.
S-ethylisothiouronium diethylphosphate was injected at doses of 1 mg/kg (n=5), 5 mg/kg (n=18), and 100 mg/kg (n=8). […] The development of a bradycardiac effect was noted which started already on the first minutes after the injection, reaching on the average 25-30% of the initial level. Maximal bradycardiac value was observed on the 30th-40th minutes after the experiment started and maintained till the 60th minute of the observation.
Due to this fact the study was carried out separately for normotonics and hypotonics.

Structure (SMILES): CCSC(=N)N [S-ethylisothiouronium diethylphosphate]
- Radioprotective effect in words [1]: radioprotective effect
- Radioprotective effect in words ([1]; listed as Difetur): distinct radioprotective effect
- Number of survived animals ([2]; 5 mg/kg): 60%
- Number of survived animals ([2]; 10 mg/kg): 50%
- Number of survived animals ([2]; 20 mg/kg): 70%
- Lung coefficient (lung mass/body mass X100) ([3]; 5 mg/kg): 0.95±0.09
- Lung coefficient (lung mass/body mass X100) ([3]; 10 mg/kg): 0.97±0.09
- Lung coefficient (lung mass/body mass X100) ([3]; 20 mg/kg): 0.88±0.08
- Lung protection in words ([3]; in vivo): considerable protective efficiency regarding the lung tissue
- Electrocardiogram ([4]; all doses): did not reveal any pathological changes
- Bradycardiac effect, relative to the initial level ([4]; dogs): 25-30%
- Optimal dose ([4]; dogs): 5 to 10 mg/kg
- Hypertensive effect in words ([4]; dogs, all doses): does not cause secondary hypotension; also recorded: greater in hypotensive than in normotensive animals; also recorded: pronounced hypertensive effect at all the doses used
- Hypertensive effect in words ([4]; dogs, all doses, listed as S-ethylisothiouroniumdiethylphosphate): the hypertensive reaction in dogs with low arterial pressure is stronger and more prolonged
